Where a name gives a salt, the structure may show the parent alone.
Row | melting point [°C] | SMILES
1 | 195 to 197 | NCCCCCC(=O)NCC1CCC(C(=O)O)CC1 (centres unmarked) (as salt: hydrochloride) [Amide 3, 6-((((1s,4s)-4-Carboxycyclohexyl)methyl)amino)-6-oxohexan-1-aminium chloride]
2 | 221 to 224 | NCC(=O)NCC1CCC(C(=O)O)CC1 (centres unmarked) (as salt: hydrochloride) [Amide 7, 2-((((1s,4s)-4-Carboxycyclohexyl)methyl)amino)-2-oxoethanaminium chloride]
